# Measured values as given in patent US20040259198A1, “Purified and isolated mat II beta subunit nucleic acids and polypeptides and therapeutic and screening methods using same” (priority 1999, published 2004).
# Like-named read-outs stand apart in the source and are kept apart here.
# Tests used:
# MAT I = conditions: cited from earlier work
# MAT II = assay: MAT activity and kinetics in extracts of transfected Cos-1 cells; assay type: biochemical, African green monkey; conditions: for Km: Cos-1 cells expressing high levels of rα2, two kinetic forms, read-out: Km for L-Met, lower-Km kinetic form
# Description: Transfection of Cos-1 cells with pTargeT™/MAT2A or pTargeT™/MAT2B was done using the cationic lipid reagent, Transfast™ (Promega). Preliminary experiments were carried out to optimize the transfection conditions. Typically, 1.5×10^6 cells were plated in 100 mm dish one day prior to transfection. For each plate, […] of vector DNA was applied in the ratio of 1:1 to Transfast™ in a protein-free medium for 2 h. For cells co-transfected with both α2 and β vectors, […] DNA from each was used. For each experiment, one untransfected plate served as a normal control, and a second plate was transfected with the pTargeT™ vector only (mock-transfected cells). After 48 h, cells were harvested by trypsinization with a solution containing 0.05% trypsin and 0.53 mM EDTA in Hank's balanced salt solution (HBSS, from Cellgro). Trypsinization was stopped by the addition of media supplemented with 10% FCS, cells were pelleted, washed three times in 1 ml HBSS, counted, then resuspended in 1× extraction buffer with protease inhibitors (50 mM Tris, pH 7.4, 100 mM NaCl, 5 mM MgCl2, 4 mM dithiothreitol, 0.1 IU/ml aprotinin, 0.5 mM PMSF and […] soybean trypsin inhibitor). Cells were lysed by three cycles of quick freezing and thawing, and the lysate was clarified by centrifugation at 15,000×g for 10 min at 4° C. If not immediately used; cell extracts were stored at −80° C. Protein assays were performed using the bicinchoninic acid reagent (Sigma) following the manufacturer instructions.
# MAT activity in cell extracts was assayed as previously described (Kotb, M., and Kredich, N. M. (1985) J. Biol. Chem. 260, 3923-30). […] The concentration of L-Met was varied between […] using ^14C-L-Met (57.9 mCi/mmol) to a concentration of up to […], and supplementary with cold L-Met for higher concentrations.
# MAT III = conditions: cited from earlier work
# [1] = target: T1, MAT II from human leukemic cells (Homo sapiens, UniProt P31153); conditions: cited from earlier work
# T1 construct: MAT II from human leukemic cells expressing both the α and β subunits of the enzyme; host or cells: human leukemic cells
compound,measurement,setting,value
"MAT I: hepatic MAT, tetramer of the α1 catalytic subunit",Km,MAT I; read-out: Km for L-Met,3 to 14 µM
"recombinant human MAT II α2: recombinant catalytic α2 subunit of human MAT II, encoded by MAT2A, His-tagged",Km,MAT II; listed as rMAT II α2 protein,15.1 µM
same,Km,MAT II; listed as rα2,15 µM
same,effect on MAT (specific) activity,"MAT II; expression in Cos-1 cells, result in words",markedly increased
same,increase in MAT activity,MAT II; transfected Cos-1 cell extracts compared to untransfected (or mock-transfected) cells,3-4 fold
"MAT III: hepatic MAT, dimer of the α1 catalytic subunit",Km,MAT III; read-out: Km for L-Met,100 to 200 µM
"C[S+](CC[C@H](N)C(=O)[O-])C[C@H]1O[C@@H](n2cnc3c(N)ncnc32)[C@H](O)[C@@H]1O (stereo partly shown) [AdoMet, S-adenosylmethionine, reference compound]",inhibition of enzyme activity,[1]; 25 μM AdoMet and 30 μM PPi,3 fold
same,inhibition of enzyme activity,[1]; 25 μM AdoMet,~2 fold
same,effect of AdoMet on enzyme,MAT I,inhibited
same,effect of AdoMet on enzyme,MAT III,activated
